Assay [1] has as its system human miRNA145. Nature of the assay: miRNA145 inhibition on Human Keratinocyte HaCaT cell line, direct quantification by luminescence. Format: cell-based. The note with it: HaCaT cells, 0.3 mg/ml, 24 hours, normalized with Snord48; mean of 3 experiments for DD14024, one experiment for the others. As for the experimental part:
The synthetic peptide candidates are evaluated for the inhibition of human miRNA145 expression level using a direct miRNA145 quantification assay based on luminescence detection in a Human Keratinocyte HaCaT cell line.
HaCat cells (Deutsches Krebsforschungszentrum) are seeded at 3.0×10^4 cells/well in 96-clear wells plates and incubated in a culture medium [(DMEM High Glucose with L-Glutamine (Lonza), supplemented with 10% Fetal Bovine Serum (Cultek)] for 24 hours at 37° C. in a water-saturated atmosphere of 95% air and 5% CO2. Then, the cells with the candidates added at 0.3 mg/ml in the culture medium are treated for 24 hours at 37° C., 95% air and 5% CO2. Cells with culture medium only are treated to the same conditions to provide basal conditions. Each cell culture condition is assayed at least in 6 biological replicates. At the end of the incubation period, the cells are lysed and the relative miRNA145 expression level is quantified by a specific assay kit (QuantiGene™ 2.0 miRNA Assay Kit) following manufacturer's instructions (Affymetrix). Briefly, to capture miRNA145, culture lysates are incubated overnight at 46±1° C. in 96-white well plates with the miRNA145 specific probe set (Capture extenders and Label extenders). As an endogenous expression control, the housekeeping Snord48 is quantified using a specific probe set. Next day, the signal amplification tree is built via sequential hybridization at 46±1° C. of three probes: PreAmplifier, Amplifier and Alkaline Phosphatase Label Probe. Then, the signal is detected by adding a chemiluminescent substrate and using a Microplate Luminometer Reader (Clariostar-BMG LabTech).
The miRNA145 expression level result is normalized with the Snord48 expression level for each cell culture condition and the relative decrease in the miRNA145 expression level is calculated respect to basal control (cells treated with culture medium only). The values represent the mean of 3 independent experiments for DD14024, and for the other candidates, represent the result of one experiment.

The subject of assay [2] is Keratin 10. Description: Keratin expression in reconstructed human epidermal tissue (RHE), immunohistochemistry (Keratin 10). Format: cell-based. The note with it: Keratin 10 immunofluorescence, 10 μg/ml, 48 hours. An excerpt: The human epidermis continuously renews itself by a process of proliferation and differentiation of keratinocytes. Basal epidermal stem cells proliferate and the differentiation process begins above the basal layer, whereby the differentiating keratinocytes slowly move outward from the basal membrane, migrate through the epidermis, and undergo terminal differentiation culminating in fully differentiated dead cells on the surface. The process is a dynamic flux so that surface cells are continuously sloughed and replaced by inner cells differentiating and moving outward. […] To study the ability of the peptides of the invention to recover the basal keratinocyte state, the expression of Keratins 10 and 14 is evaluated by immunohistochemistry in a three-dimensional culture system, Reconstructed Human Epidermal Tissue (RHE), that reproduces in vitro the histological organization of human epidermis in situ. […]
The expression of Keratins 10 and 14 is evaluated by immunohistochemistry with a specific primary antibody and a fluorescently labelled secondary antibody. […] At the end of the incubation, slides are washed with 0.2% solution of Tween 20 in PBS and are incubated with Alexa Fluor® 488 Goat anti-mouse IgG (H+L) secondary antibody (Invitrogen, green fluorescence emission dye) for 1 hour at room temperature in a dark humidified chamber. […]

Consider “Ac-QEMRMQ-OH [DD14024, Ac-Gln-Glu-Met-Arg-Met-Gln-OH]”, for which the “Relative level of miRNA145 respect to basal control (%)” value in assay [1] is 85.06 ± 6.35%. In assay [2], the “Fold induction respect to basal conditions (%)” value is recorded as 28.70%.
